Measurements reported in ChEMBL document CHEMBL3621073, “Bile acid amphiphiles with tunable head groups as highly selective antitubercular agents” (Medchemcomm, 2014).
Activity calls are given as the source filed them. No cut-off for these calls is given here.

Key:
[1] = system: A549; assay: Cytotoxicity against human A549 cells assessed as effect on cell cycle phase at 100 uM by propidium iodide staining-based flow cytometry; conditions: a549, 100 µM
[2] = Therapeutic index, ratio of MHC50 for sheep RBC to MIC99 for Mycobacterium tuberculosis H37Rv; conditions: sheep red blood cells, read-out: TI
[3] = system: Mycolicibacterium smegmatis; assay: Antimycobacterial activity against Mycobacterium smegmatis str. MC2 155 after 2 days by inverted microscopic analysis; format: functional; conditions: str. MC2 155, 48 h
[4] = system: A549; assay: Cytotoxicity against human A549 cells after 48 hrs by MTT assay; format: cell-based; conditions: A549, 48 h
[5] = system: Staphylococcus aureus; assay: Antibacterial activity against Staphylococcus aureus MTCC 737 after 12 hrs by microplate reader assay; format: functional; conditions: MTCC 737, 12 h
[6] = Therapeutic index, ratio of MHC50 for chicken RBC to MIC99 for Mycobacterium tuberculosis H37Rv; conditions: chicken red blood cells, read-out: TI
[7] = system: Escherichia coli; assay: Antibacterial activity against Escherichia coli MTCC 443 after 12 hrs by microplate reader assay; format: functional; conditions: MTCC 443, 12 h
[8] = system: THP-1; assay: Cytotoxicity against human THP1 cells after 48 hrs by MTT assay; format: cell-based; conditions: THP-1, 48 h
[9] = system: Mycobacterium tuberculosis; assay: Antimycobacterial activity against Mycobacterium tuberculosis H37Rv after 14 days by inverted microscopic analysis; format: functional; conditions: 336 h
[10] = system: Mycolicibacterium smegmatis; assay: Antimycobacterial activity against Mycobacterium smegmatis str. MC2 155 assessed as effect on […] by using propidium iodide dye; format: functional, organism-based
[11] = system: Mycobacterium tuberculosis; assay: Antimycobacterial activity against Mycobacterium tuberculosis H37Rv after 14 days by inverted microscopic analysis in presence of plasma; format: functional; conditions: 336 h
[12] = system: Escherichia coli; assay: Antibacterial activity against Escherichia coli MTCC 443 at 8 to 128 uM measured after 1 to 24 hrs by microplate reader assay; format: functional, organism-based
[13] = system: Lipid bilayer; assay: Binding affinity to PE:PG:TDM membrane assessed as membrane fluidity after 4 hrs
[14] = Binding affinity to PE:PG membrane assessed as membrane fluidity after 4 hrs
[15] = system: Escherichia coli; assay: Antibacterial activity against Escherichia coli MTCC 443 assessed as effect membrane morphology by atomic force microscopic analysis; format: functional, organism-based
[16] = system: Mycolicibacterium smegmatis; assay: Antimycobacterial activity against Mycobacterium smegmatis str. MC2 155 after 2 days by inverted microscopic analysis in presence of plasma; format: functional; conditions: str. MC2 155, 48 h
[17] = system: Mycolicibacterium smegmatis; assay: Antimycobacterial activity against Mycobacterium smegmatis str. MC2 155 after 6 to 96 hrs by inverted microscopic analysis relative to control; format: functional
[18] = system: Lipid bilayer; assay: Binding affinity to PE:PG:LPS membrane assessed as membrane fluidity after 4 hrs
[19] = system: Staphylococcus aureus; assay: Antibacterial activity against Staphylococcus aureus MTCC 737 at 16 to 256 uM measured after 1 to 24 hrs by microplate reader assay; format: functional, organism-based
[20] = system: Escherichia coli; assay: Antibacterial activity against Escherichia coli MTCC 443 assessed as effect membrane topology by atomic force microscopic analysis; format: functional, organism-based
[21] = system: Escherichia coli; assay: Antibacterial activity against Escherichia coli MTCC 443 after 12 hrs by microplate reader assay in presence of EDTA; format: functional, organism-based
[22] = system: Staphylococcus aureus; assay: Antibacterial activity against Staphylococcus aureus MTCC 737 after 12 hrs by microplate reader assay in presence of EDTA; format: functional, organism-based
[23] = system: Lipid bilayer; assay: Binding affinity to PE:PG:TDM membrane assessed as dehydration of membrane after 4 hrs
[24] = system: Escherichia coli; assay: Antibacterial activity against Escherichia coli MTCC 443 assessed as leakage of large amount of cytoplasmic contents by atomic force microscopic analysis; format: functional, organism-based
[25] = Binding affinity to PE:PG membrane assessed as dehydration of membrane after 4 hrs
[26] = system: Escherichia coli; assay: Antibacterial activity against Escherichia coli MTCC 443 assessed as micelle-like structures by atomic force microscopic analysis; format: functional, organism-based
[27] = system: Escherichia coli; assay: Antibacterial activity against Escherichia coli MTCC 443 measured after 1 to 24 hrs by microplate reader assay; format: functional, organism-based
[28] = system: Lipid bilayer; assay: Binding affinity to PE:PG:LPS membrane assessed as dehydration of membrane after 4 hrs
[29] = system: Escherichia coli; assay: Antibacterial activity against Escherichia coli MTCC 443 assessed as effect on membrane permeabilization by using propidium iodide dye; format: functional, organism-based
[30] = system: Escherichia coli; assay: Antibacterial activity against Escherichia coli MTCC 443 assessed as membrane surface indentations by atomic force microscopic analysis; format: functional, organism-based
[31] = system: Staphylococcus aureus; assay: Antibacterial activity against Staphylococcus aureus MTCC 737 assessed as effect on membrane permeabilization by using propidium iodide dye; format: functional, organism-based
[32] = system: Staphylococcus aureus; assay: Antibacterial activity against Staphylococcus aureus MTCC 737 measured after 1 to 24 hrs by microplate reader assay; format: functional, organism-based

Row | Structure (SMILES) | Activity [1] | selectivity ratio [2] | MIC99 [3] [µM] | IC50 [4] [µM] | MIC99 [5] [µM] | selectivity ratio [6] | MIC99 [7] [µM] | IC50 [8] [µM] | MIC99 [9] [µM] | also measured
1 | COC(=O)CC[C@@H](C)[C@H]1CC[C@H]2[C@@H]3[C@H](OC(=O)C[n+]4ccccc4)C[C@@H]4C[C@H](OC(=O)C[n+]5ccccc5)CC[C@]4(C)[C@H]3C[C@H](OC(=O)C[n+]3ccccc3)[C@]12C.[Cl-].[Cl-].[Cl-] | Non-toxic | > 26 | 3.12 | > 200 | > 512 | > 26 | > 512 | > 200 | 37.5 | –
2 | C[C@H](CCC(=O)O)[C@H]1CC[C@H]2[C@@H]3[C@H](O)C[C@@H]4C[C@H](O)CC[C@]4(C)[C@H]3C[C@H](O)[C@]12C [CHOLIC ACID] | Non-toxic | – | – | – | – | – | – | – | – | –
3 | COC(=O)CC[C@@H](C)[C@H]1CC[C@H]2[C@@H]3[C@H](OC(=O)C[n+]4ccc(N(C)C)cc4)C[C@@H]4C[C@H](OC(=O)C[n+]5ccc(N(C)C)cc5)CC[C@]4(C)[C@H]3CC[C@]12C | – | > 320 | 0.78 | 154 | 128 | > 320 | 128 | 137 | 3.12 | –
4 | COC(=O)CC[C@@H](C)[C@H]1CC[C@H]2[C@@H]3CC[C@@H]4C[C@H](OC(=O)C[N+]5(C)CCCCC5)CC[C@]4(C)[C@H]3C[C@H](OC(=O)C[N+]3(C)CCCCC3)[C@]12C | – | > 160 | 0.78 | 50 | 128 | > 160 | > 512 | 77 | 6.25 | –
5 | COC(=O)CC[C@@H](C)[C@H]1CC[C@H]2[C@@H]3CC[C@@H]4C[C@H](OC(=O)C[N+]5(C)CCCCC5)CC[C@]4(C)[C@H]3CC[C@]12C | – | > 20 | 6.25 | 42 | > 512 | > 20 | > 512 | 77 | 50 | –
6 | COC(=O)CC[C@@H](C)[C@H]1CC[C@H]2[C@@H]3[C@H](OC(=O)C[N+]4(C)CCCCC4)C[C@@H]4C[C@H](OC(=O)C[N+]5(C)CCCCC5)CC[C@]4(C)[C@H]3CC[C@]12C | – | > 80 | 1.56 | 79 | 256 | > 80 | 128 | 164 | 12.5 | –
7 | COC(=O)CC[C@@H](C)[C@H]1CC[C@H]2[C@@H]3[C@H](OC(=O)C[N+]4(C)CCCCC4)C[C@@H]4C[C@H](OC(=O)C[N+]5(C)CCCCC5)CC[C@]4(C)[C@H]3C[C@H](OC(=O)C[N+]3(C)CCCCC3)[C@]12C.[Cl-].[Cl-].[Cl-] | Non-toxic | > 40 | 6.25 | > 200 | 512 | > 40 | > 512 | > 200 | 25 | –
8 | COC(=O)CC[C@@H](C)[C@H]1CC[C@H]2[C@@H]3[C@H](OC(=O)C[N+](C)(C)C)C[C@@H]4C[C@H](OC(=O)C[N+](C)(C)C)CC[C@]4(C)[C@H]3C[C@H](OC(=O)C[N+](C)(C)C)[C@]12C.[Cl-].[Cl-].[Cl-] | Non-toxic | > 20 | 12.5 | > 200 | > 512 | > 20 | > 512 | 80 | 50 | –
9 | COC(=O)CC[C@@H](C)[C@H]1CC[C@H]2[C@@H]3CC[C@@H]4C[C@H](OC(=O)C[n+]5ccc(N(C)C)cc5)CC[C@]4(C)[C@H]3C[C@H](OC(=O)C[n+]3ccc(N(C)C)cc3)[C@]12C | – | > 213 | 0.78 | 50 | 64 | > 213 | 64 | 63 | 4.68 | –
10 | COC(=O)CC[C@@H](C)[C@H]1CC[C@H]2[C@@H]3CC[C@@H]4C[C@H](OC(=O)C[N+](C)(C)C)CC[C@]4(C)[C@H]3C[C@H](OC(=O)C[N+](C)(C)C)[C@]12C | – | < 20 | 12.5 | 157 | 256 | < 20 | 256 | 105 | > 50 | –
11 | COC(=O)CC[C@@H](C)[C@H]1CC[C@H]2[C@@H]3[C@H](OC(=O)C[n+]4ccc(N(C)C)cc4)C[C@@H]4C[C@H](OC(=O)C[n+]5ccc(N(C)C)cc5)CC[C@]4(C)[C@H]3C[C@H](OC(=O)C[n+]3ccc(N(C)C)cc3)[C@]12C.[Cl-].[Cl-].[Cl-] | Non-toxic | > 160 | 1.56 | > 200 | 256 | > 160 | > 512 | > 200 | 6.25 | Activity [10]: Active; MIC99 [11]: 6.25 µM; Activity [12]: inactive; Activity [13]: Active; Activity [14]: inactive; Activity [15]: inactive; MIC99 [16]: 6.25 µM; fold change (FC) [17]: 10000; Activity [18]: inactive; Activity [19]: inactive; Activity [20]: inactive; Activity [21]: Active; Activity [22]: Active; Activity [23]: inactive
12 | COC(=O)CC[C@@H](C)[C@H]1CC[C@H]2[C@@H]3[C@H](OC(=O)CN)C[C@@H]4C[C@H](OC(=O)CN)CC[C@]4(C)[C@H]3C[C@H](OC(=O)CN)[C@]12C.Cl.Cl.Cl | Non-toxic | < 20 | > 50 | 75.9 | 64 | < 20 | 32 | 38.2 | > 50 | Activity [24]: Active; Activity [13]: inactive; Activity [14]: inactive; Activity [25]: Active; Activity [26]: Active; Activity [27]: Dose-dependent effect; Activity [17]: inactive; Activity [18]: inactive; Activity [28]: Active; Activity [21]: Active; Activity [29]: Active; Activity [30]: Active; Activity [22]: Active; Activity [31]: Active; Activity [32]: Dose-dependent effect; Activity [23]: Active
